Laboratory results: PubChem BioAssay (NCI)
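Five compound concentrations were applied to cells in 96-well plates for 48 hours; endpoints were derived by simple linear interpolation of the resulting dose-response curve. GI50 is the concentration that inhibits growth by half. The concentration for full growth arrest is given as TGI.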

Experiments:
Assay in all cases: NCI anticancer screen, dose series, 48 h
[1] = tested on: T-47D breast
[2] = tested on: XF 498 CNS
[3] = tested on: HOP-18 NSCLC
[4] = tested on: DLD-1 colon
[5] = tested on: M19-MEL melanoma
[6] = tested on: KM20L2 colon
[7] = tested on: MDA-N
[8] = tested on: SNB-78 CNS

For `CCOC(=O)C(=Cc1cccc(Cl)c1)C(=O)OCC`, the GI50 [1] was 1.78 µM and the TGI [1] was 4.26 µM.
Work on `O=C(O)CSc1n[nH]c(-c2ccccc2)n1` yielded a TGI [2] greater than 100 µM, a TGI [3] greater than 100 µM and a TGI [4] greater than 100 µM. For the same compound, the TGI [5] was greater than 100 µM and the TGI [6] was greater than 100 µM.
`COc1ccc(-c2oc(=O)ccc2-c2cc(OC)c(OC)c(OC)c2)cc1F` was tested, and the GI50 [1] was 23.9 µM and the TGI [1] was greater than 100 µM.
For `Cc1nc2ccccc2nc1-c1ccc(N=[N+]([O-])c2ccc(-c3nc4ccccc4nc3C)cc2)cc1`, the TGI [1] was greater than 100 µM and the TGI [7] was greater than 100 µM.
Work on `O=C(c1ccc(Cl)cc1)c1cnc(Nc2ccccc2Cl)s1` yielded a TGI [1] of 47.9 µM, a TGI [7] of 50.1 µM and a TGI [4] greater than 100 µM. For the same compound, the TGI [5] was greater than 100 µM.
With `COc1ccc2[nH]cc(-c3nc(-c4c[nH]c5ncccc45)cs3)c2c1` the GI50 [1] was 6.47 µM and the TGI [1] was greater than 100 µM.
In the case of `COc1cccc(/C=N/[N-]C(=O)c2ccncc2)c1[O-].[Cu+2].[OH3+]`, the GI50 [2] is reported as greater than 100 µM, the TGI [2] is reported as greater than 100 µM and the GI50 [8] is reported as greater than 100 µM. The TGI [8] was greater than 100 µM, the GI50 [3] was greater than 100 µM and the TGI [3] was greater than 100 µM. It also gave a GI50 [4] of 52.6 µM, a TGI [4] greater than 100 µM and a GI50 [5] greater than 100 µM. The TGI [5] was greater than 100 µM, the GI50 [6] was 47.9 µM and the TGI [6] was greater than 100 µM.
`C1CSCCSCCS1` showed a TGI [1] greater than 100 µM and a TGI [7] greater than 100 µM.
`Cc1ccc(Cl)cc1Nc1nc(C(F)(F)F)ccc1C(=O)N1CCN(c2cccc(Cl)c2)CC1` gave a GI50 [1] of 37.6 µM and a TGI [1] greater than 100 µM.
`Oc1cc(O)c2c(c1)OC(c1ccc(O)c(O)c1)C(OC1(c3cc(O)c(O)c(O)c3)Oc3cc(O)cc(O)c3C(O)C1O)C2` (stereo not given) was tested, and the TGI [1] was greater than 100 µM and the TGI [7] was 49.5 µM.
With `CN(C)c1c([O-])c(=[N+](C)C)c1=O` the TGI [2] was greater than 100 µM and the TGI [8] was greater than 100 µM.
Work on `Cc1ccc(Cn2c(C)nc3c2C(=O)c2ccccc2C3=O)cc1` yielded a TGI [2] of 47.6 µM, a TGI [8] greater than 100 µM and a TGI [4] greater than 100 µM. For the same compound, the TGI [5] was 21.1 µM and the TGI [6] was greater than 100 µM.
`O=C(CC(O)(C(F)(F)F)C(F)(F)F)c1cc(CC(=O)C(O)(C(F)(F)F)C(F)(F)F)cc(CC(=O)C(O)(C(F)(F)F)C(F)(F)F)c1` showed a TGI [1] of 4.26 µM and a TGI [7] greater than 9.13 µM.
For `Cn1cnc([N+](=O)[O-])c1S(=O)(=O)Oc1ccccc1`, the GI50 [1] was 2.3 µM and the TGI [1] was 7.73 µM.
In the case of `Nc1nccc2c1ccn2-c1ccc(NC(=O)c2ccc(N3CCOCC3)c(C(F)(F)F)c2)cc1`, the GI50 [1] is reported as 2.19 µM and the TGI [1] is reported as 19.2 µM.
With `Nc1c(C(=O)Nc2cccc(Br)c2)sc2nc3c(cc12)C(=O)CCC3` the GI50 [1] was 2.13 µM and the TGI [1] was greater than 100 µM.
`C[C@H]1NC(=O)C2CCCCN2C(=O)CN(C)C(=O)CNC(=O)C2CCCCN2C(=O)[C@@H](NC(=O)c2nc3ccccc3cc2O)[C@@H](C)NC(=O)C2CCCCN2C(=O)CN(C)C(=O)CNC(=O)[C@@H]2CCCCN2C(=O)C1NC(=O)c1nc2ccccc2cc1O` (stereo not given in full) was tested, and the TGI [8] was 11.5 µM, the TGI [5] was 0.56 µM and the TGI [6] was 10.4 µM.
`CC(=O)O[C@H]1CCC2[C@@H]3CCC4=C(O)c5nocc5C[C@]4(C)C3CC[C@@]21C` (stereo not given in full) showed a TGI [2] greater than 100 µM, a TGI [8] greater than 100 µM and a TGI [3] greater than 100 µM. The TGI [5] was greater than 100 µM and the TGI [6] was greater than 100 µM.
In the case of `CC1=CC(=O)[C@@H](O)[C@]2(C)[C@H]3[C@@]4(O)OC[C@]35[C@H]([C@@H](C)[C@H]4O)[C@@H](O)C(=O)O[C@@H]5C[C@@H]12`, the TGI [7] is reported as 0.869 µM.
Compound `COc1cc(C2c3cc4c(cc3C(O)C(CO)C2CO)OCO4)cc(OC)c1OC` (stereo not given) has a TGI [1] greater than 100 µM.
Compound `C=CCCCCCCCCCCC1(O)C=CC2=[N+](CCCCCN=C(N)N)CCCN21` (stereo not given) has a GI50 [1] of 22 µM and a TGI [1] of 55.6 µM.
`CC1(C)OCCn2c1nc1c(N3CCOCC3)nc(-c3cnc(N)nc3)nc12` showed a GI50 [1] of 0.0325 µM and a TGI [1] of 0.248 µM.
In the case of `O=C(CSc1nnc(-c2ccc(N=Cc3ccc(Cl)cc3)cc2)o1)Nc1ccc(Cl)cc1`, the TGI [2] is reported as greater than 100 µM, the TGI [8] is reported as greater than 100 µM and the TGI [3] is reported as greater than 100 µM. For the same compound, the TGI [5] was greater than 100 µM and the TGI [6] was greater than 100 µM.
`CCOc1ccc2nc(S/C(=C/C=C(C#N)C#N)c3ccc(C)cc3)sc2c1` showed a GI50 [1] of 42.4 µM and a TGI [1] greater than 100 µM.
Work on `COC12C=C/C(=C(/C(=O)OCc3ccncc3)C(=O)CCCCCCCCC3(OC)C=C/C(=C(/C(=O)OCc4ccncc4)C(=O)CCCCCCCC1)O3)O2` yielded a GI50 [1] of 0.706 µM and a TGI [1] of 21.5 µM.
`Cn1cc(C2=C(c3cn(C)c4cc(C(N)=O)ccc34)C(=O)NC2=O)c2ccccc21` showed a GI50 [1] of 1.98 µM and a TGI [1] greater than 25 µM.
